In US9346829B2, “5-HT3 receptor antagonists” (Takeda Phamaceutical Company Limited, priority 2012, dated 2016):

Tests used:
nicotinic α-7 receptor = nicotinic α-7 receptor (Homo sapiens (Human), UniProt P36544); test: Nicotinic α-7 receptor binding assay; settings: binding at the nicotinic α-7 receptor, carried out at Eurofins Pharma Services
Method: The evaluation of binding at the nicotinic α-7 receptor was carried out at Eurofins Pharma Services.

5-HT3a receptor = 5-HT3a receptor (Homo sapiens (Human), UniProt P46098); test: Inhibition of Ca flux activity of 5-HT3 in vitro assay; assay type: cell-based
Sequence of 5-HT3a receptor (P46098 24-478): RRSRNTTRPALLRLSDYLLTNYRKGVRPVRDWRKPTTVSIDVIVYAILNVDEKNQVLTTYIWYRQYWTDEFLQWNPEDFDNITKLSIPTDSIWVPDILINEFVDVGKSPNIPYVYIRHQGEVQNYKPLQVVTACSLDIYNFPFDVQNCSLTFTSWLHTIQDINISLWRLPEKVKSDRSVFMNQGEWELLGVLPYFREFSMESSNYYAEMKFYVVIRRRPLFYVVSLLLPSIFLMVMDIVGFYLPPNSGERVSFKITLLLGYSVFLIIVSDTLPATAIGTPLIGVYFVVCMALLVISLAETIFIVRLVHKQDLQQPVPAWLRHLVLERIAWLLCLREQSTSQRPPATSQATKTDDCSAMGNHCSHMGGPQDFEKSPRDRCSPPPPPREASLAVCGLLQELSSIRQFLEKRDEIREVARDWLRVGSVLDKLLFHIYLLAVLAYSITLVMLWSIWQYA
Method: The 5-HT3 antagonist activity of the compounds of the invention was determined by measuring the ability of the compounds to inhibit the calcium flux activity of […] receptor expressed in HEK-293T cells. HEK-293T cells were transfected with the 5-HT3a expression construct using Xtreme Gene 9 (Roche) in 150 mm tissue culture treated plates and incubated for 24 hours at 37° C. Cells were then split and plated at a density of 60K cells/well in poly-lysine coated, black 96-well plates with clear bottoms (BD BioSciences) and incubated overnight at 37° C. Growth media was removed and cells loaded with 200 uL calcium indicator dye in HBSS containing 20 mM HEPES (Calcium 5 Assay kit, Molecular Devices) and incubated at 37° C. for 1 hour. While cells were incubating, the 10× antagonist and agonist/antagonist addition plates were made. For 10× antagonist plate: half log serial dilutions (final concentrations range from 10^−7 through 10^−10 with the bottom well a negative, no ligand control) were made from test compounds in DMSO at a 1000× concentration and then diluted to 10× in HBSS/20 mM HEPES. For addition plate: 5HT was diluted to 100× in HBSS/20 mM HEPES (final concentration in the assay—216 nM) and 15 uL was added to each well of the addition plate, 15 uL of 10× compound was also added to the addition plate, and finally 120 uL of HBSS/20 mM HEPES (for a total of 150 uL). Cells were then removed from the incubator and equilibrated to room temperature for 10 minutes, then 22.5 uL of 10× test compounds were added in triplicate to the plates and incubated at room temperature for 10 minutes (Tropisetron was used as a positive control in every assay). Test plate and addition plate were loaded into the FlexStation III (Molecular Devices), and using the fluidics, 22.5 uL compound additions were made (at t=˜17 seconds), and fluorescence was measured for 90 seconds, reading every 2.2 seconds. Data sets were analyzed as max minus min using Software Max Pro (Molecular Devices). IC50 curves were generated using non-linear regression in GraphPad Prism.

Sequence of nicotinic α-7 receptor (P36544 23-502): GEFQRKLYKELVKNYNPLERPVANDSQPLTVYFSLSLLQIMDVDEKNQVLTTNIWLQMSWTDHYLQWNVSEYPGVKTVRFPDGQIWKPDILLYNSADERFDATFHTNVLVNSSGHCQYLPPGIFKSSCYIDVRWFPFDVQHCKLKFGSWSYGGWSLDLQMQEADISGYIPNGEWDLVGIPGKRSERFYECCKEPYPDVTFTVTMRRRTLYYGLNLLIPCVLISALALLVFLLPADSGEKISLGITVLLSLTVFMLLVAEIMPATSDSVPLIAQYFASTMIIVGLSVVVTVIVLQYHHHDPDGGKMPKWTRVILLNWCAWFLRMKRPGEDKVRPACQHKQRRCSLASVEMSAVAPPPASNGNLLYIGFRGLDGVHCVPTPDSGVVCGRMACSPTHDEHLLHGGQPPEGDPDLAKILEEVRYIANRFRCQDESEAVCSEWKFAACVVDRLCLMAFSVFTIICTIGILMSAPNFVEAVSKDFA

CN1C2COCC1CC(OC(=O)c1c[nH]c3ccccc13)C2 [Reference 7, (1R,5S,7S)-9-methyl-3-oxa-9-azabicyclo[3.3.1]nonan-7-yl 1H-indole-3-carboxylate, reference compound]
IC50 (nicotinic α-7 receptor): 1660 nM | IC50 (5-HT3a receptor): 89.1 nM
